From the supplement of paper PMC11451515

Test system: NOMO1
Assay: cell viability relative to DMSO control; higher = less cytotoxic
Conditions: 48 h
How it was run: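 In 1536-well plates, 5 μl of leukemia cells were seeded per well: 500 cells/well for NOMO1 or SEM and 1000 cells/well for P12-Ichikawa. Each line had first been adapted for at least four passages in each medium. Library compounds in DMSO were pin-dosed at 11 threefold concentrations between 47 μM and 0.79 nM, and CellTiter-Glo One luminescence was read after 48 h at 37°C. Viability is a per-plate percentage relative to DMSO wells, with cell-free wells as background.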

[1] = RPMI 5 mM glucose + 10% FBS, 0.000781 µM
[2] = RPMI 5 mM glucose + 10% FBS, 0.00234 µM
[3] = RPMI 5 mM glucose + 10% FBS, 0.00702 µM
[4] = RPMI 5 mM glucose + 10% FBS, 0.0211 µM
[5] = RPMI 5 mM glucose + 10% FBS, 0.0632 µM
[6] = RPMI 5 mM glucose + 10% FBS, 0.19 µM
[7] = RPMI 5 mM glucose + 10% FBS, 0.569 µM
[8] = RPMI 5 mM glucose + 10% FBS, 1.71 µM
[9] = RPMI 5 mM glucose + 10% FBS, 5.12 µM
[10] = RPMI 5 mM glucose + 10% FBS, 15.4 µM
[11] = RPMI 5 mM glucose + 10% FBS, 46.1 µM
[12] = RPMI 5 mM glucose + 10% dialyzed FBS, 0.000781 µM
[13] = RPMI 5 mM glucose + 10% dialyzed FBS, 0.00234 µM
[14] = RPMI 5 mM glucose + 10% dialyzed FBS, 0.00702 µM
[15] = RPMI 5 mM glucose + 10% dialyzed FBS, 0.0211 µM
[16] = RPMI 5 mM glucose + 10% dialyzed FBS, 0.0632 µM
[17] = RPMI 5 mM glucose + 10% dialyzed FBS, 0.19 µM
[18] = RPMI 5 mM glucose + 10% dialyzed FBS, 0.569 µM
[19] = RPMI 5 mM glucose + 10% dialyzed FBS, 1.71 µM
[20] = RPMI 5 mM glucose + 10% dialyzed FBS, 5.12 µM
[21] = RPMI 5 mM glucose + 10% dialyzed FBS, 15.4 µM
[22] = RPMI 5 mM glucose + 10% dialyzed FBS, 46.1 µM
[23] = HPLM + 10% dialyzed FBS, 0.000781 µM
[24] = HPLM + 10% dialyzed FBS, 0.00234 µM
[25] = HPLM + 10% dialyzed FBS, 0.00702 µM
[26] = HPLM + 10% dialyzed FBS, 0.0211 µM
[27] = HPLM + 10% dialyzed FBS, 0.0632 µM
[28] = HPLM + 10% dialyzed FBS, 0.19 µM
[29] = HPLM + 10% dialyzed FBS, 0.569 µM
[30] = HPLM + 10% dialyzed FBS, 1.71 µM
[31] = HPLM + 10% dialyzed FBS, 5.12 µM
[32] = HPLM + 10% dialyzed FBS, 15.4 µM
[33] = HPLM + 10% dialyzed FBS, 46.1 µM

SMILES	cell viability [1] [%]	cell viability [2] [%]	cell viability [3] [%]	cell viability [4] [%]	cell viability [5] [%]	cell viability [6] [%]	cell viability [7] [%]	cell viability [8] [%]	cell viability [9] [%]	cell viability [10] [%]	cell viability [11] [%]	cell viability [12] [%]	cell viability [13] [%]	cell viability [14] [%]	cell viability [15] [%]	cell viability [16] [%]	cell viability [17] [%]	cell viability [18] [%]	cell viability [19] [%]	cell viability [20] [%]	cell viability [21] [%]	cell viability [22] [%]	cell viability [23] [%]	cell viability [24] [%]	cell viability [25] [%]	cell viability [26] [%]	cell viability [27] [%]	cell viability [28] [%]	cell viability [29] [%]	cell viability [30] [%]	cell viability [31] [%]	cell viability [32] [%]	cell viability [33] [%]
Nc1nccc(-c2ccc3noc(-c4ccc(Cl)cc4)c3c2)n1	101	117	103	127	102	111	115	107	108	101	104	121	115	115	120	122	110	127	106	118	116	113											
Clc1ccc(C(c2ccc(Cl)cc2)[n+]2ccn(CC(OCc3ccc(Cl)cc3Cl)c3ccc(Cl)cc3Cl)c2)cc1 (stereo not drawn)	94.6	100	105	94.7	119	113	91	103	102	74.3	3.56	105	105	118	114	112	107	98.5	91.3	90.4	83	2.5	108	99	113	110	107	107	115	102	101	81.2	3.86
CO[C@H]1C[C@@H]2CC[C@@H](C)[C@@](O)(O2)C(=O)C(=O)N2CCCC[C@H]2C(=O)O[C@H]([C@@H](C)C[C@@H]2CC[C@@H](O)[C@H](OC)C2)CC(=O)[C@H](C)/C=C(\C)[C@@H](O)[C@@H](OC)C(=O)[C@H](C)C[C@H](C)/C=C/C=C/C=C/1C	113	116	128	136	136	109	113	118	97.3	111	103	112	116	121	106	108	117	111	115	128	105	99.9	106	110	112	91	95.3	112	103	104	81.6	88.7	81.5
